From US4722931A, “Calcium antagonist” (Laboratorios Delagrange, priority 1984, dated 1988)
Counter-ions that a name gives are not always drawn. Like-named read-outs stand apart in the source and are kept apart here.

Tests used:
[1] = test system: KCl depolarized rat aorta; assay: Inhibitory effects on rat aorta contractions induced by KCl (in vitro); format: cell-based, Wistar rats; settings: for activity relative to compound 7 (IC 50): same test, compared with compound 7
From the text: Inhibitory effects on rat aorta contractions induced by KCl: […]

[2] = test system: SHR rats; assay: Antihypertensive efficacy in SHR rats (systolic blood pressure, tail cuff); format: in vivo, spontaneously hypertensive rats (SHR); settings: for maximum decrease of blood pressure, mm Hg / inhibition in vivo at 8 mg/kg: n = 5; for inhibition in vivo at 8 mg/kg: Rattus norvegicus, po, Table 2, read-out: maximum decrease of blood pressure, %; for in vivo antihypertensive activity, in words: p.os
Method: The systolic blood pressure was measured on the tail of conscious, spontaneously hypertensive rats (SHR), by means of an inflatable rubber cuff and a Digital Pressure meter LE 5000 (Letica Instruments, Barcelone, Spain). Measurements were carried out before administration of the substance, as well as 30 minutes, 1 h, 2, 6, and 24 hours afterwards, respectively. The animals were kept in pre-warmed plastic cylinders during the measurements. The rats with a blood pressure lesser than 160 mm. Hg were discarded. Each compound was tested in 5 animals. Compounds of this invention, or nitrendipine which was used as positive control were given orally in the form of suspensions in 5% acacia gum.

[3] = KCl 80 mM depolarized rat aorta, Table 1, read-out: IC × 10^-8
[4] = rat aorta contractions induced by KCl 80 mM, read-out: IC 50
[5] = rat aorta contractions induced by KCl 80 mM

COCCOC(=O)C1=C(C)NC(C)=C(C(=O)OCCOC)C1c1cccc2c1OCO2 [Compound 16, 1,4-dihydro-2,6-dimethyl-4-(2',3'-methylenedioxyphenyl)-3,5-pyridinedicarboxylic acid, dimethoxyethyl ester]
IC50 [1, 3]: > 100 nM

CCOC(=O)C1=C(C)NC(C)=C(C(=O)OC)C1c1cccc([N+](=O)[O-])c1 (stereo not drawn) [nitrendipine, reference compound]
maximum decrease of blood pressure, mm Hg ([2]; 8 mg./kg. p.os): 54 mm Hg
inhibition in vivo at 8 mg/kg ([2]; 8 mg./kg. p.os): 26.3%

CCOC(=O)C1=C(C)NC(C)=C(C(=O)OC)C1c1cc(OC)cc(OC)c1 (stereo not drawn) [Compound 5, 1,4-dihydro-2,6-dimethyl-4-(3',5'-dimethoxyphenyl)-3,5-pyridinedicarboxylic acid, ethyl methyl ester]
IC50 [1, 3]: 92 nM

CCOC(=O)C1=C(C)NC(C)=C(C(=O)OC(C)C)C1c1cccc2c1OCO2 (stereo not drawn) [Compound 15, 1,4-dihydro-2,6-dimethyl-4-(2',3'-methylenedioxyphenyl)-3,5-pyridinedicarboxylic acid, ethyl isopropyl ester]
IC50 [1, 3]: 2.1 nM
IC50 [1, 4]: 2.1 nM
activity relative to compound 7 (IC 50) [1]: as active as compound 7
maximum decrease of blood pressure, mm Hg ([2]; 8 mg./kg. p.os): 62 mm Hg
inhibition in vivo at 8 mg/kg ([2]; 8 mg./kg. p.os): 32.4%
in vivo antihypertensive activity, in words ([2]; SHR rats): also active in vivo

COC(=O)C1=C(C)NC(C)=C(C(=O)OC)C1c1ccccc1[N+](=O)[O-] [Nifedipine, nifedipine, reference compound]
IC50 [1, 3]: 7.1 nM
IC50 [1, 4]: 7.5 nM
activity relative to compound 7 (IC 50) [1]: about two times less active than compound 7

COC(=O)C1=C(C)NC(C)=C(C(=O)OCC(C)C)C1c1cccc2c1OCO2 (stereo not drawn) [Compound 10, 1,4-dihydro-2,6-dimethyl-4-(2',3'-methylenedioxyphenyl)-3,5-pyridinedicarboxylic acid, methyl isobutyl ester]
IC50 [1, 3]: 12 nM
maximum decrease of blood pressure, mm Hg ([2]; 8 mg./kg. p.os): 48 mm Hg
inhibition in vivo at 8 mg/kg ([2]; 8 mg./kg. p.os): 23.5%
in vivo antihypertensive activity, in words ([2]; SHR rats): also active in vivo

CCOC(=O)C1=C(C)NC(C)=C(C(=O)OC)C1c1cccc2c1OCO2 (stereo not drawn) [Compound 7, 1,4-dihydro-2,6-dimethyl-4-(2',3'-methylenedioxyphenyl)-3,5-pyridinedicarboxylic acid, ethyl methyl ester]
IC50 [1, 3]: 3.1 nM
in vitro activity, in words [1, 5]: the most active within the series of methyl ethyl ester derivatives
in vitro activity, in words ([1]; rat aorta contractions induced by KCl 80 mM, listed as IQB-837 V): very active
IC50 [1, 4]: 3.5 nM
decreasing blood pressure by ([2]; 8 mg./kg. p.os, SHR rats): 30%
maximum decrease of blood pressure, mm Hg ([2]; 8 mg./kg. p.os): 65 mm Hg
inhibition in vivo at 8 mg/kg ([2]; 8 mg./kg. p.os): 33%
in vivo antihypertensive activity, in words ([2]; SHR rats): as active as nitrendipine
in vivo antihypertensive activity, in words ([2]; SHR rats, listed as IQB-837 V): very active

COCCOC(=O)C1=C(C)NC(C)=C(C(=O)OC(C)C)C1c1cccc2c1OCO2 (stereo not drawn) [Compound 11, 1,4-dihydro-2,6-dimethyl-4-(2',3'-methylenedioxyphenyl)-3,5-pyridinedicarboxylic acid, isopropyl methoxyethyl ester]
IC50 [1, 3]: 91 nM

CCOC(=O)C1=C(C)NC(C)=C(C(=O)OC)C1c1ccccc1OCOC (stereo not drawn) [Compound 6, 1,4-dihydro-2,6-dimethyl-4-(2'-methoxymethoxy-phenyl)-3,5-pyridinedicarboxylic acid, ethyl methyl ester]
IC50 [1, 3]: 12 nM
maximum decrease of blood pressure, mm Hg ([2]; 8 mg./kg. p.os): 34 mm Hg
inhibition in vivo at 8 mg/kg ([2]; 8 mg./kg. p.os): 15.2%
in vivo antihypertensive activity, in words ([2]; SHR rats): also active in vivo

CC1=C(C(=O)OC(C)C)C(c2cccc3c2OCO3)C(C(=O)OC(C)C)=C(C)N1 [Compound 12, 1,4-dihydro-2,6-dimethyl-4-(2',3'-methylenedioxyphenyl)-3,5-pyridinedicarboxylic acid, diisopropyl ester]
IC50 [1, 3]: > 100 nM

CCOC(=O)C1=C(C)NC(C)=C(C(=O)OCC)C1c1cccc2c1OCO2 [Compound 14, 1,4-dihydro-2,6-dimethyl-4-(2',3'-methylenedioxyphenyl)-3,5-pyridinedicarboxylic acid, diethyl ester]
IC50 [1, 3]: > 100 nM

COC(=O)C1=C(C)NC(C)=C(C(=O)OCc2ccccn2)C1c1cccc2c1OCO2 (stereo not drawn) [Compound 17, 1,4-dihydro-2,6-dimethyl-4-(2',3'-methylenedioxyphenyl)-3,5-pyridinedicarboxylic acid, methyl, 2-pyridylmethyl ester, hydrochloride]
IC50 [1, 3]: > 100 nM

CCOC(=O)C1=C(C)NC(C)=C(C(=O)OC)C1c1cc(OC)c(OC)c(OC)c1 (stereo not drawn) [Compound 1, 1,4-dihydro-2,6-dimethyl-4-(3',4',5'-trimethoxyphenyl)-3,5-pyridinedicarboxylic acid, methyl ethyl ester]
IC50 [1, 3]: > 100 nM
in vitro activity, in words [1, 5]: little or no activity
maximum decrease of blood pressure, mm Hg ([2]; 8 mg./kg. p.os): 9.8 mm Hg
inhibition in vivo at 8 mg/kg ([2]; 8 mg./kg. p.os): 5%

COC(=O)C1=C(C)NC(C)=C(C(=O)OC)C1c1cccc2c1OCO2 [Compound 9, 1,4-dihydro-2,6-dimethyl-4-(2',3'-methylenedioxyphenyl)-3,5-pyridinedicarboxylic acid, dimethyl ester]
IC50 [1, 3]: 83 nM

CCOC(=O)C1=C(C)NC(C)=C(C(=O)OC)C1c1cc(OC)c(O)c(OC)c1 (stereo not drawn) [Compound 3, 1,4-dihydro-2,6-dimethyl-4-(3',5'-dimethoxy-4'-hydroxyphenyl)-3,5-pyridinedicarboxylic acid, methyl ethyl ester]
IC50 [1, 3]: > 100 nM
in vitro activity, in words [1, 5]: little or no activity

COC(=O)C1=C(C)NC(C)=C(C(=O)OC(C)C)C1c1cccc2c1OCO2 (stereo not drawn) [Compound 13, 1,4-dihydro-2,6-dimethyl-4-(2',3'-methylenedioxyphenyl)-3,5-pyridinedicarboxylic acid, methyl isopropyl ester]
IC50 [1, 3]: 34 nM
maximum decrease of blood pressure, mm Hg ([2]; 8 mg./kg. p.os): 10 mm Hg
inhibition in vivo at 8 mg/kg ([2]; 8 mg./kg. p.os): 5.2%

CCOC(=O)C1=C(C)NC(C)=C(C(=O)OC)C1c1ccc(OC)c(OC)c1 (stereo not drawn) [Compound 2, 1,4-dihydro-2,6-dimethyl-4-(3',4'-dimethoxyphenyl)-3,5-pyridinedicarboxylic acid, methyl ethyl ester]
IC50 [1, 3]: > 100 nM
in vitro activity, in words [1, 5]: little or no activity

CCOC(=O)C1=C(C)NC(C)=C(C(=O)OC)C1c1cccc(OC)c1OC (stereo not drawn) [Compound 4, 1,4-dihydro-2,6-dimethyl-4-(2',3'-dimethoxyphenyl)-3,5-pyridinedicarboxylic acid, ethyl methyl ester]
IC50 [1, 3]: > 100 nM

CCOC(=O)C1=C(C)NC(C)=C(C(=O)OC)C1c1cccc2c1OCCO2 (stereo not drawn) [Compound 8, 1,4-dihydro-2,6-dimethyl-4-(2',3'-ethylenedioxyphenyl)-3,5-pyridinedicarboxylic acid, methyl ethyl ester]
IC50 [1, 3]: 45 nM
in vitro activity, in words [1, 5]: rather active in vitro
in vitro activity, in words ([1]; rat aorta contractions induced by KCl 80 mM, listed as IQB-838 V): very active
maximum decrease of blood pressure, mm Hg ([2]; 8 mg./kg. p.os): 12 mm Hg
inhibition in vivo at 8 mg/kg ([2]; 8 mg./kg. p.os): 7.2%
in vivo antihypertensive activity, in words ([2]; SHR rats): a little antihypertensive effect
in vivo antihypertensive activity, in words ([2]; SHR rats, listed as IQB-838 V): very active
